# Data from publication PMC3214078 (PLoS ONE, 2011).
# Where a chain is given by its changes, count along the chain named. Where no end group is shown, it is not given here.
# Legend:
# Assay type in all cases: binding
# [1] = biological target: T1, huUHRF1-PHD296–367 (Homo sapiens, UniProt Q96T88); assay: ITC, wild-type huUHRF1-PHD296–367 with histone H3 peptides; details: 20°C, 20 mM Tris pH 7, 150 mM NaCl, 0.5 mM TCEP, 25 µM ZnCl2, 0.1 mM PMSF, peptide 1.5–2 mM into protein 0.12–0.18 mM, at least in duplicates
# T1 construct: (His)6-GST (N, cleaved yes); made in house; host or cells: Escherichia coli Rosetta 2
# T1 sequence (Q96T88 296-367): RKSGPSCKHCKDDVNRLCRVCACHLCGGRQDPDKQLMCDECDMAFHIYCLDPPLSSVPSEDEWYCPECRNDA
# Method: Measurements were carried out at 20°C on an ITC200 Microcal calorimeter (MicroCal). […] A typical titration consisted of 19 injections of 2 µl of peptide into 203 µl of the protein solution at time intervals of 150–300 s. Control experiments were performed under identical conditions to determine the dilution heat of the titrant peptide into buffer. Data were analyzed using the software ORIGIN 5.0 (OriginLab Corporation) and all the measurements were performed, at least, in duplicates.
# [2] = biological target: T2, huUHRF1-PHD296–367 D334A (Homo sapiens, UniProt Q96T88, D334A); assay: ITC, D334A mutant; details: 20°C, 20 mM Tris pH 7, 150 mM NaCl, 0.5 mM TCEP, 25 µM ZnCl2, at least in duplicates
# T2 construct: Characterization of key residues for the recognition of the histone H3 tail by huUHRF1-PHD296–367; (His)6-GST (N, cleaved yes); made in house; host or cells: Escherichia coli Rosetta 2
# T2 sequence (Q96T88 296-367 D334A): T1 sequence (Q96T88 296-367) with D39A
# Method: (§1) Measurements were carried out at 20°C on an ITC200 Microcal calorimeter (MicroCal). Histone peptides (1–12Y, 1.5–2 mM) were injected to a sample of either wild-type or mutant huUHRF1-PHD (0.12–0.18 mM) in a reaction buffer containing 20 mM Tris pH 7, 150 mM NaCl, 0.5 mM TCEP, 25 µM ZnCl2 and 0.1 mM PMSF. A typical titration consisted of 19 injections of 2 µl of peptide into 203 µl of the protein solution at time intervals of 150–300 s. Control experiments were performed under identical conditions to determine the dilution heat of the titrant peptide into buffer. Data were analyzed using the software ORIGIN 5.0 (OriginLab Corporation) and all the measurements were performed, at least, in duplicates.
# [3] = biological target: T3, huUHRF1-PHD296–367 D337A (Homo sapiens, UniProt Q96T88, D337A); assay: ITC, D337A mutant; details: 20°C, 20 mM Tris pH 7, 150 mM NaCl, 0.5 mM TCEP, 25 µM ZnCl2, at least in duplicates
# T3 construct: Characterization of key residues for the recognition of the histone H3 tail by huUHRF1-PHD296–367; (His)6-GST (N, cleaved yes); made in house; host or cells: Escherichia coli Rosetta 2
# T3 sequence (Q96T88 296-367 D337A): T1 sequence (Q96T88 296-367) with D42A
# Method: as §1
Molecule,Kd [1] [µM],Kd [2] [µM],Kd [3] [µM]
C[C@H](N)C(=O)N[C@@H](CCCNC(=N)N)C(=O)N[C@H](C(=O)N[C@@H](CCCCN)C(=O)N[C@@H](CCC(N)=O)C(=O)N[C@H](C(=O)N[C@@H](C)C(=O)N[C@@H](CCCNC(=N)N)C(=O)N[C@@H](CCCCN)C(=O)N[C@@H](CO)C(=O)N[C@H](C(=O)NCC(=O)N[C@@H](Cc1ccc(O)cc1)C(=O)O)[C@@H](C)O)[C@@H](C)O)[C@@H](C)O [unmodified H3],7.9,–,–
ARTAQTARKSTGY [H3K4A (1-12Y)],16.6 ± 0.9,–,–
C[C@H](N)C(=O)N[C@@H](CCCNC(=N)N)C(=O)N[C@H](C(=O)N[C@@H](CCCCN)C(=O)N[C@@H](CCC(N)=O)C(=O)N[C@H](C(=O)N[C@@H](C)C(=O)N[C@@H](CCCNC(=N)N)C(=O)N[C@@H](CCCCN)C(=O)N[C@@H](CO)C(=O)N[C@H](C(=O)NCC(=O)N[C@@H](Cc1ccc(O)cc1)C(=O)O)[C@@H](C)O)[C@@H](C)O)[C@@H](C)O [H3 (1-12Y)],–,> 500,68 ± 8
